Experimental data taken from a melting point compilation (Tetko et al.; mined from patent text by program, amines drawn as free bases though some values may be those of a salt).

melting point [°C]	SMILES
129 to 131	N#Cc1cnc2cc(/C=C/CCN3CCOCC3)ccc2c1Nc1ccc(Cl)cc1Cl
109 to 110	CC(C)(C)OC(=O)COc1ccc(NC(=O)OCc2ccccc2)cc1
135 to 137	CCOC(=O)c1ccc2cncc(I)c2n1
96 to 98	O=[N+]([O-])c1ccc2oc(CBr)cc2c1
258 to 260	Cn1cc(OS(C)(=O)=O)c(=O)c2ccc(S(C)(=O)=O)cc21
204 to 205	Cc1ccc(O)c2[nH]c(Cc3ccccc3)nc12
94 to 99	O=C(O)CCCNC(=O)NCCCCC1CCSS1 (configuration not stated)
244	Cc1nn(CC(O)c2ccc(Cl)cc2)c(=O)n1-c1ccc(N2CCN(c3ncc(O)cn3)CC2)cc1 (configuration not stated)
81	CCCCCCC#Cc1csc(/C=C/C(=O)O)c1
173	CC(C)(C)OC(=O)N1CCO[C@@H](c2ccc(C(=O)O)cc2)C1
143 to 145	CCOCc1nc2c(N)nc(C)c(C)c2n1CCOCc1ccncc1
193 to 194	CC(C)(C)OC(=O)N1CCCC(c2nc(-c3ccncc3)c(-c3ccc(F)cc3)[nH]2)C1 (configuration not stated)
240	c1ccc2c(c1)c(-c1cc3nccnc3[nH]1)cn2CCCN1CCCCC1
97 to 98	CCOC(=O)NC(C)c1ccc(O)c(C2CCCCC2)c1 (configuration not stated)
70 to 72	CC1(C)Cc2ccccc2C=[N+]1[O-]
4	FC(F)(F)n1cc(Br)cn1
144 to 145	Clc1ccc(-n2nc3c(c2Br)CSCC3)cc1
125 to 126	O=Cc1cccc(OCc2ccccc2)c1Br
257 to 258	Cc1c(F)cc(C(C)(C)C)c(O)c1-c1nc2ccc(S(=O)(=O)C(F)(F)F)cc2c(=O)[nH]1
188 to 189	Cc1cnc(-c2cc3c(O)cccc3s2)o1
82	Cc1cn2c(nc1=O)CCC2
180 to 181	O=C1COCC(=O)NCCOCCN1
109	Cn1cncc1CC(=O)c1ccc(Br)cc1
164 to 168	CC(C)(C)c1cc(N=Nc2ccc(Cl)cc2Cl)c(O)c(C(C)(C)C)c1
192 to 194	Cc1ccc(C(=O)Nc2cc(N3CCN(C)CC3)cc(C(F)(F)F)c2)cc1Nc1nccc(-c2cccnc2)n1

melting point [°C]	SMILES
114 to 116	OC(CCl)CN1CCN(C(c2ccccc2)c2ccccc2)CC1 (configuration not stated)
169 to 173	c1ccc2c(c1)nc(N1CCOCC1)c1c(-c3noc(C4CC4)n3)ncn12
170 to 180	N#CCc1cc(O)cc2nc(-c3ccc(O)cc3)oc12
136 to 137	N=C(NC(=O)OCc1ccccc1)N(C(=O)OCc1ccccc1)C1CCC(CCN2CCN(c3ccccc3)CC2)CC1 (configuration not stated)
186	c1ccc(C(c2ccc3[nH]cnc3c2)n2ccnc2)cc1 (configuration not stated)
208 to 209	O=c1c(-c2ccccc2)c(CSc2ncnc3[nH]cnc23)oc2ccccc12
116 to 117	Cn1nc(C(F)(F)F)cc1Oc1cc(C#N)cc(-n2ccc(C(F)(F)F)n2)c1
116 to 120	CCSc1nc(C(C)(C)C)c[nH]1
151 to 153	COC(=O)C1=C(C)NC(C)=C(C(=O)OCCCCCCOc2cc(-c3ccccc3)[nH]n2)C1c1cccc([N+](=O)[O-])c1 (configuration not stated)
155 to 156	O=C(N[C@H]1CCCNC1=O)c1ccccc1C(F)(F)F
211	CN1CCCC(C(=O)OC2c3ccccc3C(=O)N2c2ccc3ccc(Cl)nc3n2)C1 (configuration not stated)
133 to 135	Cc1ccccc1C(=O)c1ccc(CC(=O)O)n1C
178 to 180	Cc1nc2cc(C#N)ccc2n1-c1ccc(C(=O)N(C)[C@@H]2CCNC2)cc1
199 to 203	Cc1csc2ccc3[nH]c4c(c3c12)CN(C(C)C)CC4
48 to 51	CCOP(=O)(O)Cc1cccc(C(F)(F)F)c1
124	N#CC(Nc1cc(Cl)c(Cl)cc1Cl)c1ccccc1 (configuration not stated)
159 to 161	C[C@@H](n1ccnc1)C(O)(c1ccc(Cl)cc1)c1ccc(Cl)cc1
218 to 222	O=c1c2ccccc2nc(-c2sc(Nc3ccccc3)nc2-c2ccccc2)n1-c1ccc(Cl)cc1
140 to 141	CCNC(=S)NCCSCc1[nH]cnc1C
> 200	CNn1c(C)nc(N2CCc3ccccc3CC2)c(C#N)c1=O
95.5 to 96.5	CCCCCCCCC#CCCCCCCCC(=O)Nc1nc(CC(=O)O)cs1
264 to 267	O=C(Nc1cccc2c1C(=O)c1c-2n[nH]c1-c1ccc(C(=O)NC2CCCCC2)s1)NN1CCOCC1
154 to 159	O=C(O)C[C@H](C(=O)N[C@H](CO)Cc1ccccc1)n1cc(-c2ccc(-c3ccccc3)cc2)cn1
112 to 114	COC(=O)C1=C(C)NC(C)=C(C(=O)OCCN2CCCC2=O)C1c1cccc([N+](=O)[O-])c1 (configuration not stated)
234 to 236	CCCCn1c(=O)c2c(NCC)n[nH]c2n(Cc2ccc(OC)cc2)c1=O

melting point [°C]	SMILES
57 to 58	COc1ccc(-c2oncc2CO)cc1
195 to 199	O=C(O)CN1C(=O)C(=Cc2ccc(OCc3ccc(OC(F)(F)F)cc3)c(OCc3ccccc3)c2)SC1=S
165 to 167	COc1ccc(N2C(=O)Cc3ccccc32)cc1Cl
171 to 180	O=[N+]([O-])c1oc2ccc(CBr)cc2c1-c1ccccc1
54.5 to 57.5	CCCCCCCCNC(=O)Nc1nc2nc(NCCCN3CCN(C)CC3)ncc2cc1-c1c(Cl)cccc1Cl
98 to 100	CCCCn1nc(C(F)(F)CC)nc1Cc1ccc(-c2ccccc2-c2nnn[nH]2)nc1
156 to 159	CN1CCC(=C2c3cc(C#N)ccc3C=Cn3cccc32)CC1
167 to 169	CC(Cc1cccnc1)(NC(=O)OC1C2CC3CC(C2)CC1C3)C(=O)NCCc1ccccc1 (configuration not stated)
114 to 116	CCC(=O)NCCC1CCc2cc(Br)c3c(c21)CCCO3 (configuration not stated)
127 to 128	CCn1c(C)nc2c(C(=O)OC)c(C(=O)OC)ccc21
139 to 140	Cc1oc(-c2ccccc2)nc1COc1ccc(Cn2cc(CCC(=O)O)c(-c3ccc(F)cc3)n2)cc1
283 to 286	Cc1cc(N2CCN(C(=O)c3ccc(Nc4ccnc5cc(C(F)(F)F)ccc45)cc3)CC2)nc(N)n1
83 to 85	CN(C)c1ccc(C(=O)CCCC2CCN(Cc3ccccc3)CC2)cc1
285 to 286	Clc1cccc(Nc2ncnc3[nH]c(-c4ccccc4)cc23)c1
239 to 241	O=C(O)CCCNC(=O)c1ccccc1NC(=O)c1cc([N+](=O)[O-])ccc1O
162 to 164	O=C1N(Cc2ccc3nsnc3c2)c2ccccc2C12COc1cc3c(cc12)CCO3 (configuration not stated)
171 to 173	COC(=O)C(O)=CC(=O)c1cn(Cc2ccc(F)cc2)c(=O)n(Cc2ccc(F)cc2)c1=O
79 to 81	N#CC(c1ccccc1)N1CCN(C2CCCCC2)CC1 (configuration not stated)
92.5 to 94	CCCCCC(CC(=O)O)c1cc(C(=O)CC)c(OC)cc1OC (configuration not stated)
195	COc1ccc(N2CCN(c3ccc([N+](=O)[O-])cc3)CC2)cc1
88 to 90	COC(=O)NC(C)(C)c1ccc(CC#N)cc1
78 to 80	COc1cc(OC)c2ccsc2c1
89 to 93	CCOC(=O)C(C(=O)CC)C(=O)OCC
161 to 163	Cc1c(CO)ncn1C
233 to 236	CCOC(=O)c1cn(-c2cnc(Cl)c(N)c2)c2c(Cl)c(F)c(F)cc2c1=O

melting point [°C]	SMILES
146 to 147	O=C1c2ccccc2C(=O)N1CCCOc1cccc2c(N3CCCCC3)nccc12
302 to 306	CCCn1cc2c(C3C(=O)Nc4ccc(Cl)cc43)ncnc2n1 (configuration not stated)
92 to 94	COc1cc(O)c(C(=O)c2ccccc2)c(Cl)c1
176 to 179	CS(=O)(=O)Nc1ccc(F)c(C(O)CN)c1 (configuration not stated)
198 to 199	COP(=O)(Cc1ccc(NC(=O)[C@H]2Cc3cc4c(cc3C(=O)[C@H](C)S2)OCO4)cc1)OC
228	CC(C)(C)c1ccc2c(c1)C(=O)c1ccc(-c3nnn[nH]3)cc1S2(=O)=O
224 to 225	Cn1nnnc1NC(=O)c1cccc2cccnc12
150 to 152	CC(C)(C)c1ccc(S(=O)(=O)CS(=O)(=O)c2ccc(C(C)(C)C)cc2)cc1
142 to 146	CCCCCCCCOc1ccc(-c2nnn[nH]2)c(O)c1
103 to 108	COc1ccc(C)cc1NC(=O)Nc1ccc(C2=CCN(C(=O)Nc3ncccc3CO)CC2)cc1
148 to 149	CC1(C)CC(O)CC2(C)OC(=O)C=C12 (configuration not stated)
159 to 160	CC(C)c1nc(CCOC(=O)N[C@H](C(=O)N[C@@H](Cc2ccccc2)[C@@H](O)C[C@H](Cc2ccccc2)NC(=O)OCc2cncs2)C(C)C)cs1
115 to 116	CN1NC(c2ccccc2Cl)=NN=C1c1ccccc1Cl
118 to 120	CCCCSc1cc(C(=O)OC)cc(S(N)(=O)=O)c1Cc1ccccc1
222 to 223	O=C(Cc1ccccc1Br)NCC1OC(n2cc(Br)c(=O)[nH]c2=O)CC1O (configuration not stated)
36.5 to 38.5	Cc1ccc(S(=O)(=O)CCCCCC(C)(C(=O)OC(C)(C)C)C(=O)OC(C)(C)C)cc1
126 to 134	CC(C)N1C(=O)CC(C(=O)O)C1c1ccccc1 (configuration not stated)
145 to 148	Cc1ccccc1C(=O)Nc1ccc(C(=O)N2Cc3ccccc3Sc3ccccc32)cc1
135	CC(=O)OC1CSC(Oc2cncc(-c3ccc(OC(C)C)cc3)c2)C(OC(C)=O)C1OC(C)=O (configuration not stated)
172 to 175	Cc1[nH]c(=O)ccc1C(=O)c1ccc(C#N)cc1
187 to 188	COc1ccccc1N1CCN(CCCn2c(=O)[nH]c3cscc3c2=O)CC1
206 to 208	N#Cc1ccc(C2CC(=O)c3ccccc3N2)cc1 (configuration not stated)
125 to 126	COc1ccc(C)c(NC(=O)C(C)=Cc2ccccc2)c1
59 to 60	COc1ccc(Cl)cc1C(=O)Cl

SMILES	melting point [°C]
NC1(c2cccc(Br)c2)CC1	135 to 137
COc1ccc2cc(C(=O)CNC(=O)c3cn(C)c4ccccc34)ccc2c1	177 to 180
CC(C)(COC(=O)OOC(=O)OCC(C)(C)c1ccccc1)c1ccccc1	59 to 60
